The values that follow come from ChEMBL document CHEMBL3244355, “Quinolone antimicrobial agents. 2. Methylenedioxy positional isomers of oxolinic acid” (1979).

One experiment concerns Staphylococcus aureus. The experiment in a line: Antimicrobial activity against Staphylococcus aureus ATCC 6538P assessed as growth inhibition by agar dilution-streak method. The format is functional. For orientation: In agar dilution the substance is mixed into plates at graded concentrations.
A further experiment relates to Salmonella typhi. In words: Antimicrobial activity against Salmonella typhi ATCC 9992 assessed as growth inhibition by agar dilution-streak method. The following applies: Salmonella enterica. The format is functional, Salmonella enterica subsp. enterica serovar Typhi.
Another experiment concerns Escherichia coli. The experiment in a line: Antimicrobial activity against Escherichia coli ATCC 26 assessed as growth inhibition by agar dilution-streak method. The format is functional.
A further experiment relates to Acinetobacter sp. In words: Antimicrobial activity against Acinetobacter sp. 2347 assessed as growth inhibition by agar dilution-streak method. The format is functional.
Another experiment has as its system Enterococcus faecalis. In words: Antimicrobial activity against Streptococcus faecalis ATCC 8043 assessed as growth inhibition by agar dilution-streak method. The format is functional.
A further experiment concerns Proteus vulgaris. The experiment in a line: Antimicrobial activity against Proteus vulgaris ATCC 6897 assessed as growth inhibition by agar dilution-streak method. The format is functional.
A further experiment concerns Proteus mirabilis. In words: Antimicrobial activity against Proteus mirabilis Finland 9 assessed as growth inhibition by agar dilution-streak method. The format is functional.
The subject of a further experiment is Serratia marcescens. The experiment in a line: Antimicrobial activity against Serratia marcescens ATCC 4003 assessed as growth inhibition by agar dilution-streak method. The format is functional.
The next experiment deals with Klebsiella pneumoniae. The experiment in a line: Antimicrobial activity against Klebsiella pneumoniae ATCC 8045 assessed as growth inhibition by agar dilution-streak method. The format is functional.
A further experiment has as its system Shigella sonnei. The experiment in a line: Antimicrobial activity against Shigella sonnei ATCC 9290 assessed as growth inhibition by agar dilution-streak method. The format is functional.
A further experiment has as its system Pseudomonas aeruginosa. The experiment in a line: Antimicrobial activity against Pseudomonas aeruginosa BMH 1 assessed as growth inhibition by agar dilution-streak method. The format is functional.

Molecules are shown by their SMILES. Converted amounts (≈) assume the structure as drawn. Where only a bound is given, the exact number is not on record here.

What is called MIC is the smallest concentration in the dilution series that meets the test's criterion for growth inhibition. `CCn1cc(C(=O)O)c(=O)c2cc3c(cc21)OCO3` [OXOLINIC ACID]: the MIC is 0.78 µg/mL (≈ 2.99 µM) in the experiment on Staphylococcus aureus; 0.2 µg/mL (≈ 0.766 µM) in the experiment with Salmonella typhi; 0.1 µg/mL (≈ 0.383 µM) in the experiment with Escherichia coli; 0.4 µg/mL (≈ 1.53 µM) with Acinetobacter sp.; 25 µg/mL (≈ 95.7 µM) in the experiment on Enterococcus faecalis; greater than 0.05 µg/mL with Proteus vulgaris. Further, the MIC is 0.78 µg/mL (≈ 2.99 µM) in the experiment with Proteus mirabilis; 0.1 µg/mL (≈ 0.383 µM) in the experiment on Serratia marcescens; greater than 0.05 µg/mL with Klebsiella pneumoniae; 0.2 µg/mL (≈ 0.766 µM) in the experiment on Shigella sonnei; 12.5 µg/mL (≈ 47.9 µM) with Pseudomonas aeruginosa.
With `CCn1cc(C(=O)O)c(=O)c2c3c(ccc21)OCO3`, the MIC in the experiment on Staphylococcus aureus is greater than 100 µg/mL; in the experiment with Salmonella typhi, greater than 100 µg/mL; in the experiment on Escherichia coli, greater than 100 µg/mL; with Acinetobacter sp., greater than 100 µg/mL; in the experiment with Enterococcus faecalis it was greater than 100 µg/mL; in the experiment on Proteus vulgaris it was 100 µg/mL (≈ 383 µM). Moreover, the MIC is greater than 100 µg/mL with Proteus mirabilis; greater than 100 µg/mL in the experiment on Serratia marcescens; 25 µg/mL (≈ 95.7 µM) with Klebsiella pneumoniae; greater than 100 µg/mL in the experiment on Shigella sonnei; greater than 100 µg/mL in the experiment on Pseudomonas aeruginosa.
Consider `CCn1cc(C(=O)O)c(=O)c2ccc3c(c21)OCO3`, for which the MIC was 25 µg/mL (≈ 95.7 µM) in the experiment on Staphylococcus aureus; 12.5 µg/mL (≈ 47.9 µM) in the experiment on Salmonella typhi; 6.25 µg/mL (≈ 23.9 µM) in the experiment on Escherichia coli; 6.25 µg/mL (≈ 23.9 µM) in the experiment on Acinetobacter sp.; greater than 100 µg/mL in the experiment with Enterococcus faecalis; 3.13 µg/mL (≈ 12 µM) in the experiment on Proteus vulgaris. For the same molecule, the MIC was 50 µg/mL (≈ 191 µM) in the experiment with Proteus mirabilis; 3.13 µg/mL (≈ 12 µM) in the experiment with Serratia marcescens; 1.56 µg/mL (≈ 5.97 µM) in the experiment with Klebsiella pneumoniae; 3.13 µg/mL (≈ 12 µM) in the experiment with Shigella sonnei; greater than 100 µg/mL in the experiment with Pseudomonas aeruginosa.
